This note sets out measurements from paper PMC6591177, “Small Molecule IL-36γ Antagonist as a Novel Therapeutic Approach for Plaque Psoriasis” (Scientific Reports, 2019).

By Ki is commonly meant a measure of affinity in units of concentration, obtained from inhibition or displacement. A high value points to lower affinity. The Kd is a measure of binding affinity in units of concentration.

For assay [1], the system named is IL-36γ evoked CXCL1 release from Mouse NIH-3T3 cells. In words: IL-36γ evoked CXCL1 release, mouse NIH-3T3 cells. Conditions: human IL-36γ evoked CXCL1 release, ± S.D. It counts as cell-based. As for the experimental part: The immortalized human keratinocyte cell line HaCaT and mouse fibroblast NIH-3T3 cell line were maintained in culture in DMEM with 10% fetal bovine serum and 1% penicillin/streptomycin added (Sigma). Cells were seeded in 96-well tissue culture plates (Corning) at 25,000 cells per well and allowed to adhere and recover overnight at 37 °C in an incubator. Cells were rinsed with PBS (Sigma) and treated with cytokines diluted in 200 μL/well of the medium (DMEM with 0.5% FBS and 1% penicillin/streptomycin) as indicated. In inhibition mode, the agonist concentration used was at the EC80 for chemokine production and the cells were pre-treated with inhibitors for 30 min prior to adding the agonist. After 24 h of treatment, supernatants were collected and IL-8 and CXCL1[28] levels were assessed using a custom immunoassay (Meso Scale Discovery). EC50/IC50 values were estimated from a four-parameter logistic fit using Prism software (GraphPad).

The next assay has as its target T1, human IL-36γ (Homo sapiens, UniProt Q9NZH8).
T1 construct: His6-SUMO-human IL-36γ (18–169); His6-SUMO (N, cleaved yes); made in house; host or cells: E. coli BL21 (DE3)
T1 sequence (Q9NZH8 18-169): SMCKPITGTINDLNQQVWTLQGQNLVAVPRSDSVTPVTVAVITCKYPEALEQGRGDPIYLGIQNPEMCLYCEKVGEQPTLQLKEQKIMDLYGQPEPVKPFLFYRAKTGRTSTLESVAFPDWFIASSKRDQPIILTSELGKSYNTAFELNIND
In words: Isothermal titration calorimetry. It counts as binding. Conditions: 25 °C, pH 7.5; read-out: KD (ITC). On the procedure: All experiments were carried out on a MicroCal^TM Auto-ITC200 at 25 °C in 50 mM HEPES (pH = 7.5), 150 mM NaCl, 0.5 mM TCEP, 2% DMSO. IL-36γ protein solution was buffer exchanged by gel filtration into the isothermal titration calorimetry (ITC) buffer and diluted to 40 µM. The titrations were conducted using an initial injection of 0.2 µL followed by 19 identical injections of 2 µL of 400 µM compound solution. Thermodynamic parameters were calculated using ∆G = ∆H − T∆S = −RTlnKB, where ∆G, ∆H and ∆S are the changes in free energy, enthalpy and entropy of binding respectively. A single binding site model was employed.
For orientation: Isothermal titration calorimetry measures the heat released or taken up as one component is titrated into another.

Assay [2] relates to human IL-36γ induced plasma CXCL1. In words: hIL-36γ induced CXCL1 release in mouse plasma. In kind it is in vivo. Conditions: C57BL/6 mice, compounds 10, 30 and 100 mg/kg p.o.; antibody i.p. An excerpt:
Female C57BL/6 mice (9–10 weeks old, 19–23 g) were purchased from Charles River Laboratories. All animal procedures were approved by AbbVie’s Institutional Animal Care and Use Committee (IACUC) and performed in accordance with the relevant IACUC guidelines and regulations. To examine engagement of human IL-36γ with antagonists under in vivo conditions, a mouse acute CXCL1 release assay was established which was similar to one previously reported. Plasma CXCL1 secretion was induced by subcutaneous injection of 2 μg human IL-36γ (in 100 μL PBS) into C57BL/6 mice. Blood was withdrawn via cardiac puncture 2 h after the challenge with IL-36γ. A-552 and A-553 were dosed at 10, 30 and 100 mg/kg p.o. 45 min before IL-36γ challenge. Anti-IL36R antibodies were dosed i.p. at 24 hours before IL-36γ challenge. Plasma CXCL1 levels were analyzed using MSD V-PLEX kit.

Take `COC(c1ccccc1)(c1ccccc1)[C@H](Oc1nc(C)cc(-c2ccc(C)c(N)c2)n1)C(=O)O` [Compound A-552]: the inhibition constant (Ki) in assay [1] is 0.054 ± 0.01 µM. Further, at human IL-36γ, the equilibrium dissociation constant (Kd) was 0.0676 ± 0.006 µM. In addition, in assay [2], the “effect on hIL-36γ induced plasma CXCL1 release (in words)” value is “robustly attenuated CXCL1 levels in plasma in a dose-dependent manner”.
